Measured values published in US9682928B2 (NeuroPro Therapeutics, Inc., priority 2009, dated 2017).

Legend:
Male Rj: NMRI mice = test: Formalin paw test (late phase) in the mouse; format: in vivo; details: for Antinociception compared to gabapentin (584 μmol/kg; 100 mg/kg): late phase, at highest two doses (NTP-2014, NTP-2024) or highest dose (NTP-2026, Bumetanide)
Outline: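 Male NMRI mice received an intraplantar injection of 5% formalin (25 μl) into the left hind paw. Licking of the injected paw was scored at 1-min intervals from 15 to 50 min, blind, with 10 mice per group. Treated groups were compared with vehicle by Mann-Whitney U test; gabapentin 100 mg/kg i.p. served as reference.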

Na+K+Cl− co-transporter = target: T1, Na+K+Cl− co-transporter (Rattus norvegicus, UniProt E9PTX9); test: Na+K+Cl− cotransporter assay, 86Rb uptake in A7r5 cells; format: cell-based; details: 10 minutes at 37° C.; for inhibition at 10 µM: read-out: % Inhibition of Control Values; for remaining activity at 10 µM: read-out: % of Control Value
T1 construct: endogenous in cells; host or cells: A7r5 cells
T1 sequence (E9PTX9 1-1203): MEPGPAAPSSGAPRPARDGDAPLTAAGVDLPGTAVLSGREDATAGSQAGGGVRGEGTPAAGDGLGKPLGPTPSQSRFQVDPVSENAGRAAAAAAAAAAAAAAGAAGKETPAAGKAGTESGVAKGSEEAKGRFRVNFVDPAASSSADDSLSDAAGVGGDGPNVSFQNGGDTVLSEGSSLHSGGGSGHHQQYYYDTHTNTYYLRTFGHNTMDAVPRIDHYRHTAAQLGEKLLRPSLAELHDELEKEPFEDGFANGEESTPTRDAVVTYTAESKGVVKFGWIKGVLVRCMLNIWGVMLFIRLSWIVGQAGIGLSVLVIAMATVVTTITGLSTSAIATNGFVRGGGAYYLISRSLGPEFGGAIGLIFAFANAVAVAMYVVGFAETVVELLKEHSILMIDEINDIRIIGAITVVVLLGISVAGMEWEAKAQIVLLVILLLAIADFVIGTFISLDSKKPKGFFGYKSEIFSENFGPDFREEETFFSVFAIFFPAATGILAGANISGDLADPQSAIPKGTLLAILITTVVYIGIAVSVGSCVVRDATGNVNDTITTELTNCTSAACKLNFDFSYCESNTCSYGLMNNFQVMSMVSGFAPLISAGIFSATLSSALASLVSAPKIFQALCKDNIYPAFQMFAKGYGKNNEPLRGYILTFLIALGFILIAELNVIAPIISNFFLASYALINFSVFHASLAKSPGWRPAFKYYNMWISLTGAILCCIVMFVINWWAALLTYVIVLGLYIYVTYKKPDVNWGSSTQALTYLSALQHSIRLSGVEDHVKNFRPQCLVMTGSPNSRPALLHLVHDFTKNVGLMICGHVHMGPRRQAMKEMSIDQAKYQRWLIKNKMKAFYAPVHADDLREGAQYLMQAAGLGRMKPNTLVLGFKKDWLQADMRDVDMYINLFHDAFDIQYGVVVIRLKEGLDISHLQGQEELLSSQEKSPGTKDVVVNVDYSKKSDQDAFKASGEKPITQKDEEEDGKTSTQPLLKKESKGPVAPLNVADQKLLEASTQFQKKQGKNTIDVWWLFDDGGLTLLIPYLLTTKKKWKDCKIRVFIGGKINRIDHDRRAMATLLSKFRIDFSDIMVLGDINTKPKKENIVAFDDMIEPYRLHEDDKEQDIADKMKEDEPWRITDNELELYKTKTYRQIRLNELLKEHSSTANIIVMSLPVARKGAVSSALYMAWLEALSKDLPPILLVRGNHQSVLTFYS
Method: Na^+K^+Cl^− co-transporter activity was measured in vitro in A7r5 cells by measuring their uptake of ^86Rb (0.2 μCi) in 10 minutes at 37° C. as detected by scintillation counting. See Chassande, et al. (1988) “The Na^+/K^+/Cl^− Cotransport in C6 glioma cells. Properties and role in volume regulation.” Eur. J. Biochem. 171: 425433.

Rat = test: MES (Rat); format: in vivo
Mice = test: 6 Hz (Mice); format: in vivo
[1] = doses up to 200 mg/kg, no metabolic inhibitor coadministered
[2] = i.p. 30 minutes before the test, 50 μmol/kg (NTP-2006 23.9, NTP-2024 21.7, NTP-1007 19.3, NTP-2014 21, NTP-2026 23.1 mg/kg)
[3] = i.p., 250 μmol/kg (NTP-2006 119, NTP-2024 108, NTP-1007 96.5, NTP-2014 105, NTP-2026 116 mg/kg)
[4] = i.p., 500 μmol/kg (NTP-2006 239, NTP-2024 217, NTP-1007 193, NTP-2014 210, NTP-2026 231 mg/kg)

| SMILES | Decrease in pain, Formalin Paw Test (Mice) - Late Phase (Male Rj: NMRI mice; at 50, 250, 500 μmol/kg) | Antinociception compared to gabapentin (584 μmol/kg; 100 mg/kg) (Male Rj: NMRI mice) | inhibition at 10 µM (Na+K+Cl− co-transporter) [%] | remaining activity at 10 µM (Na+K+Cl− co-transporter) [%] | Licking Score (15 to 50 minutes post-formalin injection) % Change from Control (Male Rj: NMRI mice; [2]) | Licking Score (15 to 50 minutes post-formalin injection) % Change from Control (Male Rj: NMRI mice; [3]) [%] | Licking Score (15 to 50 minutes post-formalin injection) % Change from Control (Male Rj: NMRI mice; [4]) [%] | Toxicity in 6 Hz study (Mice; 100 mg/kg) | Decrease in pain, Formalin Paw Test (Mice) - Late Phase (Male Rj: NMRI mice; at 250, 500 μmol/kg) | other results |
| --- | --- | --- | --- | --- | --- | --- | --- | --- | --- | --- |
| CCCCNc1cc(C(=O)O)cc(S(N)(=O)=O)c1Oc1ccccc1 [Bumetanide, reference compound] | Significant decrease in pain at 50 (p < 0.05), 250 (p < 0.01), | 500 (p < 0.001 ) μmol/kg; 18.2, 91.1, 182 mg/kg; better | 76 | 24 | – | – | – | – | – | Activity in MES (Rat; [1]): No activity at doses up |
| CCCCN(CCCC)c1cc(C(=O)O)cc(S(N)(=O)=O)c1Oc1ccccc1 [NTP-2014, 3-Aminosulfonyl-5-N,N-dibutylamino-4-phenoxybenzoic acid] | Significant decrease in pain at 50 (p < 0.05), 250 | much better than gabapentin (584 μmol/kg; 100 mg/kg) | -4 | 104 | −38% | −99 | −90 | mg/kg. No toxicity. | – | Suppression / activity in 6 Hz (Mice; 100 mg/kg, NTP-2014: all animals to 1 h, majority through 4 h, NTP-2026: 2 timepoints (2 hr, 4 hr)): Complete; Significant adverse events (Rat; 100 mg/kg): seen at 300 mg/kg. No; Toxic effects (Rat; 300 mg/kg): mg/kg. Toxic effects; Rats with complete suppression (Rat; at 4 hr, 100 mg/kg): at 4 hr in 2/3 rats at 100 |
| CCCCNc1cc(C(=O)NN2CCOCC2)cc(S(N)(=O)=O)c1Oc1ccccc1 [NTP-2024, N-Morpholinyl 3-Aminosulfonyl-5-N-butylamino-4-phenoxybenzamide] | – | (p < 0.05) μmol/kg; 108, 217 mg/kg; slightly less | – | – | −1% | −51 | −41 | – | Significant decrease in pain at 250 (p < 0.01), 500 | Licking Score % Pain Decrease (Male Rj: NMRI mice; 50 μmol/kg i.p.): 1%; Licking Score % Pain Decrease (Male Rj: NMRI mice; 250 μmol/kg i.p.): 51%; Licking Score % Pain Decrease (Male Rj: NMRI mice; 500 μmol/kg i.p.): 41%; Anti-inflammatory and analgesic effects in formalin paw test (FIG. 16) (Male Rj: NMRI mice; 50, 250, 500 μmole/kg): show anti-inflammatory and analgesic effects; % Inhibition of Control Values (Na+K+Cl− co-transporter; 10 μM): 20%; % of Control Value (Na+K+Cl− co-transporter; 10 μM): 80.2%; Activity in 6 Hz (Mice; [1]): No activity at doses |
| CCCCNc1cc(C(=O)N(C)CCCN(C)C)cc(S(N)(=O)=O)c1Oc1ccccc1 [NTP-2026, N-(3-(Dimethylamino)propyl)-N-methyl 3-Aminosulfonyl-5-N-butylamino-4-phenoxybenzamide] | – | – | – | – | no effects | −49 | −82 | No toxicity. | Significant decrease in pain at 250 (p < 0.01), 500 | Activity in MES (Rat; 30, 100, 330 mg/kg): No activity at 30, 100, |
